# Measurements reported in PMC12655060, “Modified Hevein-like Peptide from Amaranthus caudatus as a Promising Agent Against Pathogenic Candida Species” (Pharmaceutics, 2025).
# Where “and” joins values, the source holds several entries; their conditions need not be identical. Equal entries are not always repeated. Where two headings read alike, the source gives them in different places. Positions of bridges follow the written chain, without caps; N, C: chain ends. No end group written: not given here.
# How the values were obtained:
# C. albicans ATCC 18804 [1] = conditions: for MIC, RPMI-1640 / MIC, ½Sabouraud broth: Table S4; for antifungal activity in RPMI-1640: at a concentration of 50 μM
# Description: (§1) Briefly, fungal cells at a concentration of 4 × 10^4 cells/mL in the Sabouraud broth were mixed with equal volumes of serial dilutions of the peptide in water (final volume 100 μL and pH 6.0) and incubated at 30 °C for 24 h. Inhibition of fungal growth was assessed relative to the peptide-free control, based on absorbance at 630 nm and microscopic analysis. MIC50 and MIC were defined as minimal concentrations of the peptide, causing 50 and 100% inhibition of fungal growth. […] The effects of heating and reduction in disulfide bonds on the activity of the peptide towards C. albicans ATCC 18804 was also tested. […] Tobacco defensin NaD1, whose structure is also stabilized by disulfide bonds, was used for comparison in these experiments. The effect of reduced L-glutathione (AppliChem, Darmstadt, Germany), a component of RPMI-1640 medium, at a final concentration of 3.25 μM, was also studied.
# (§2) Each experiment was conducted twice in triplicate. The microplate wells were pre-treated with 0.1% BSA to minimize adsorption of antifungal agents.
# C. albicans 8.2 [2] = format: cell-based, Candida albicans; conditions: for [A]/MICA: ratio for mAc-AMP2 in the combination; for [B]/MICB: ratio for the named agent in the combination
# Description: (§3) Serial dilutions of the mixture of two combinable substances were added to the equal volumes of fungal cell suspensions in this case. […] Caspofungin or ebselen in 1% DMSO as well as voriconazole in 1% methanol were tested in these experiments.
# C. albicans 9.1 [3] = format: cell-based, Candida albicans; conditions: for [A]/MICA: ratio for mAc-AMP2 in the combination; for [B]/MICB: ratio for the named agent in the combination
# Description: as §3
# C. albicans ATCC 18804 [4] = format: cell-based, Candida albicans
# Description: as §3
# C. albicans 8.2 [5] = assay: Prevention of adhesion to the plastic surface; format: cell-based, Candida albicans; conditions: for Cell adhesion, % / Inhibition of adhesion, %: plastic surface
# Description: The plates were incubated for 1.5 h at 37 °C; after that, plate wells were washed twice with PBS to remove unattached C. albicans cells. Adherent cells were detached by microplate incubation for 45 min with trypsin/EDTA solution. Enzymatic activity was stopped by an addition of 10% FBS. After that the well contents were scraped, diluted 100-fold with PBS, and plated on Sabouraud agar with glucose and chloramphenicol. In this case, adhesion was calculated as ((N × 100)/5 × 10^5) × 100%, and adhesion inhibition was calculated as described above. These experiments were carried out twice in triplicate.
# C. albicans ATCC 18804 [6] = assay: Resistance induction experiments (serial passage); format: cell-based, Candida albicans; conditions: passaging at 0.25 × MIC for 24 days; mAc-AMP2 8th and 24th, caspofungin 21, LL-37 24th passage
# Description: For comparison, the echinocandin caspofungin, human cathelicidin LL-37, and tobacco defensin NaD1 were used in these experiments. C. albicans ATCC 18804 or ATCC 10231 at a concentration of 4 × 10^4 cells/mL were added to serial dilutions of antifungal agents. The 96-well microplates were incubated overnight at 30 °C and MIC values were determined as described above. […] Sequential passaging followed by MIC determination continued for 24 days. […] After that whole cultures as well as single colonies were used for MICs determination to confirm the stability of acquired resistance to the peptide.
# C. albicans 9.1 [7] = conditions: 12.5 μM (2 × MIC) and 25 μM (4 × MIC), same conditions; cited from earlier work
# C. albicans 8.2 [8] = conditions: 12.5 μM (2 × MIC) and 25 μM (4 × MIC), same conditions; cited from earlier work
# C. albicans 8.2 [9] = assay: Antifungal microdilution assay; format: cell-based; conditions: Candida albicans, Sabouraud broth
# Description: as §1, §2
# C. albicans ATCC 18804 [10] = test system: C. albicans ATCC 18804; set-up: method as in PMID 39770352, PMID 39337545; conditions: 2 h, same conditions; cited from earlier work
# C. albicans ATCC 18804 [11] = assay: Calcofluor White binding assay (cell wall chitin content); format: cell-based, Candida albicans; conditions: at MIC
# Description: Polyene antimycotic amphotericin B (AmB) was also used in these experiments. […] Cell cultures were harvested, washed twice with PBS, and stained with 20 μg/mL CFW in PBS for 30 min. After that stained cells were washed three times with PBS and the cell density of each group was adjusted to 10^6 cells/mL using Cell Counter LUNA-II (Logos Biosystems, Anyang-si, Republic of Korea) and trypan blue. Unstained or stained untreated by antifungal agent cells were used as negative and positive controls, respectively. Fluorescence intensities were measured at 20 °C using a Hitachi F-2710 spectrofluorometer (Hitachi High Technologies America Inc., Pleasanton, CA, USA) with excitation and emission wavelengths of 350 nm (10 nm width) and 435 nm, respectively. Results were expressed as % of fluorescence intensity in comparison to positive control. This study was performed twice in triplicate.
# [12] = test system: Caco-2 cells in a monolayer; assay: Cytotoxicity assay (resazurin); format: cell-based, human; conditions: 12.5 µM, 24 h
# Description: Then 10 µL of resazurin at a concentration of 0.7 mM was added and the incubation was continued for 4 h. Untreated cells and cells in the presence of 0.1% Triton X-100 were used as negative and positive controls, respectively. The cell viability was estimated by resorufin fluorescence registered at 595 nm as (Fsample/Fcontrol) × 100%. Wells containing no cells were used to subtract background fluorescence. This experiment was carried out twice in duplicate.
# [13] = ratio of mAc-AMP2 concentration in the combination with the named agent to its MIC
# [14] = ratio of the named agent's concentration in combination with mAc-AMP2 to its MIC
# [15] = combination of the named agent with mAc-AMP2
molecule,measurement,setting,value
"RECKTESNTFPGICITKPPCRKACISEKFTDGHCSKILRRCLCTKPC (disulfide 3-47, 14-34, 20-41, 24-43 (inferred)) [NaD1]",MFC,"C. albicans ATCC 18804 [1]; ATCC 18804, 24 h",25 µM
same,MIC,"C. albicans ATCC 18804 [1]; ATCC 18804, 24 h",6.25 µM
same,MFC,"C. albicans ATCC 18804 [1]; ATCC 18804, 24 h, pH 6",12.5 µM
same,MIC,"C. albicans ATCC 18804 [1]; ATCC 18804, 24 h, pH 6",6.25 µM
same,FICI,C. albicans 8.2 [2]; 8.2,1
same,[A]/MICA,C. albicans 8.2 [2]; strain 8.2,0.5
same,[B]/MICB,C. albicans 8.2 [2]; strain 8.2,0.5
same,FICI,C. albicans 9.1 [3]; 9.1,1
same,[A]/MICA,C. albicans 9.1 [3]; strain 9.1,0.5
same,[B]/MICB,C. albicans 9.1 [3]; strain 9.1,0.5
same,FICI,C. albicans ATCC 18804 [4],0.75
same,[A]/MICA,C. albicans ATCC 18804 [4]; [13],0.5
same,[B]/MICB,C. albicans ATCC 18804 [4]; [14],0.25
same,"Cell adhesion, %",C. albicans 8.2 [5]; 3.13 μM,5.29%
same,"Cell adhesion, %",C. albicans 8.2 [5]; 6.25 μM,0.96%
same,"Inhibition of adhesion, %",C. albicans 8.2 [5]; 6.25 μM,81.32%
same,"Cell adhesion, %","C. albicans 8.2 [5]; 12.5 μM, Sabouraud broth, 1.5 h, 37 °C",0.15%
same,"Inhibition of adhesion, %",C. albicans 8.2 [5]; 12.5 μM,97.12% and ~100%
same,"Cell adhesion, %","C. albicans 8.2 [5]; 25 μM, Sabouraud broth, 1.5 h, 37 °C",0.05%
same,"Inhibition of adhesion, %",C. albicans 8.2 [5]; 25 μM,99.03%
same,MIC increase during serial passage,C. albicans ATCC 18804 [6],no change in the sensitivity
same,effect on adhesion to the Caco-2 cell monolayer,C. albicans 9.1 [7],effectively inhibited the adhesion
same,effect on adhesion to the Caco-2 cell monolayer,C. albicans 8.2 [8],effectively inhibited the adhesion
CC[C@H](C)C[C@H](C)CCCCCCCCC(=O)N[C@H]1C[C@@H](O)[C@@H](NCCN)NC(=O)[C@@H]2[C@@H](O)CCN2C(=O)[C@H]([C@H](O)CCN)NC(=O)[C@H]([C@H](O)[C@@H](O)c2ccc(O)cc2)NC(=O)[C@@H]2C[C@@H](O)CN2C(=O)[C@H]([C@@H](C)O)NC1=O [Caspofungin],MIC,C. albicans 8.2 [9],0.04 µg/mL
same,FICI,C. albicans ATCC 18804 [4]; [15],2
same,[A]/MICA,C. albicans ATCC 18804 [4]; [13],1
same,[B]/MICB,C. albicans ATCC 18804 [4]; [14],1
same,inhibition at 5.12 µg/mL,"C. albicans 8.2 [5]; Candida albicans, 8.2, read-out: Inhibition of adhesion",~40%
same,MIC increase during serial passage,C. albicans ATCC 18804 [6],eight-fold
same,effect on PI uptake,C. albicans ATCC 18804 [10],no effects
"GIGDPVTCLKSGAICHPVFCPRRYKQIGTCGLPGTKCCKKP (disulfide 8-37, 15-30, 20-38 (inferred)) [HBD2]","MIC, RPMI-1640",C. albicans ATCC 18804 [1],> 50 µM
same,"MIC, ½Sabouraud broth",C. albicans ATCC 18804 [1]; ½Sabouraud broth,6.25 µM
same,antifungal activity in RPMI-1640,C. albicans ATCC 18804 [1],did not exhibit antifungal activity
same,[A]/MICA,C. albicans ATCC 18804 [4]; [13],0.5
same,[B]/MICB,C. albicans ATCC 18804 [4]; [14],0.5
O=c1c2ccccc2[se]n1-c1ccccc1 [Ebselen],FICI,"C. albicans 8.2 [2]; combination of the named agent with mAc-AMP2, strain 8.2",0.75
same,[A]/MICA,C. albicans 8.2 [2]; strain 8.2,0.5
same,[B]/MICB,C. albicans 8.2 [2]; strain 8.2,0.25
same,FICI,"C. albicans 9.1 [3]; combination of the named agent with mAc-AMP2, strain 9.1",1
same,[A]/MICA,C. albicans 9.1 [3]; strain 9.1,0.5
same,[B]/MICB,C. albicans 9.1 [3]; strain 9.1,0.5
same,FICI,C. albicans ATCC 18804 [4]; [15],1
same,[A]/MICA,C. albicans ATCC 18804 [4]; [13],0.5
same,[B]/MICB,C. albicans ATCC 18804 [4]; [14],0.5
C[C@@H]1[C@H](O)[C@@H](C)/C=C/C=C/C=C/C=C/C=C/C=C/C=C/[C@H](O[C@@H]2O[C@H](C)[C@@H](O)[C@H](N)[C@@H]2O)C[C@@H]2O[C@](O)(C[C@@H](O)C[C@@H](O)[C@H](O)CC[C@@H](O)C[C@@H](O)CC(=O)O[C@H]1C)C[C@H](O)[C@H]2C(=O)O [amphotericin B],fluorescence intensity of Calcofluor White-stained cells,C. albicans ATCC 18804 [11],reduced
same,effect on PI uptake,C. albicans ATCC 18804 [10],no effects
CC[C@H](C)[C@H](NC(=O)[C@H](CCCCN)NC(=O)[C@H](CCC(=O)O)NC(=O)[C@H](CCCCN)NC(=O)[C@H](CO)NC(=O)[C@H](CCCCN)NC(=O)[C@H](CCCNC(=N)N)NC(=O)[C@H](Cc1ccccc1)NC(=O)[C@H](Cc1ccccc1)NC(=O)[C@H](CC(=O)O)NC(=O)CNC(=O)[C@H](CC(C)C)NC(=O)[C@@H](N)CC(C)C)C(=O)NCC(=O)N[C@@H](CCCCN)C(=O)N[C@@H](CCC(=O)O)C(=O)N[C@@H](Cc1ccccc1)C(=O)N[C@@H](CCCCN)C(=O)N[C@@H](CCCNC(=N)N)C(=O)N[C@H](C(=O)N[C@H](C(=O)N[C@@H](CCC(N)=O)C(=O)N[C@@H](CCCNC(=N)N)C(=O)N[C@H](C(=O)N[C@@H](CCCCN)C(=O)N[C@@H](CC(=O)O)C(=O)N[C@@H](Cc1ccccc1)C(=O)N[C@@H](CC(C)C)C(=O)N[C@@H](CCCNC(=N)N)C(=O)N[C@@H](CC(N)=O)C(=O)N[C@@H](CC(C)C)C(=O)N[C@H](C(=O)N1CCC[C@H]1C(=O)N[C@@H](CCCNC(=N)N)C(=O)N[C@H](C(=O)N[C@@H](CCC(=O)O)C(=O)N[C@@H](CO)C(=O)O)[C@@H](C)O)C(C)C)[C@@H](C)CC)C(C)C)[C@@H](C)CC [LL-37],"MIC, RPMI-1640",C. albicans ATCC 18804 [1],> 50 µM
same,"MIC, ½Sabouraud broth",C. albicans ATCC 18804 [1]; ½Sabouraud broth,12.5 µM
same,antifungal activity in RPMI-1640,C. albicans ATCC 18804 [1],did not exhibit antifungal activity
same,MIC,"C. albicans ATCC 18804 [1]; microdilution, ½Sabouraud broth, pH 6.0, no salts, no FBS, 30 °C, 24 h, 100% growth inhibition, twice in triplicate",12.5 µM
same,[A]/MICA,C. albicans ATCC 18804 [4]; [13],0.5
same,[B]/MICB,C. albicans ATCC 18804 [4]; [14],0.5
same,MIC increase during serial passage,C. albicans ATCC 18804 [6],two-fold
melittin,cell death,[12],about 100%
C[C@@H](c1ncncc1F)[C@](O)(Cn1cncn1)c1ccc(F)cc1F [Voriconazole],FICI,"C. albicans ATCC 18804 [4]; combination with mAc-AMP2, for voriconazole MIC50 values were used",2
same,[A]/MICA,"C. albicans ATCC 18804 [4]; ratio for mAc-AMP2 in the combination, for voriconazole MIC50 values were used",1
same,[B]/MICB,"C. albicans ATCC 18804 [4]; ratio for voriconazole in the combination, MIC50 values were used",1
